For one series, the system named is Rattus norvegicus. The settings on record: acute; oral; mortality.
Another series has as its system Hypoaspis aculeifer. The settings on record: acute; duration: 14 days; mortality.
The subject of another series is Daphnia magna. The settings on record: chronic/long-term; duration: 21 days; reproduction.
For the next series, the system named is Apis mellifera. The settings on record: acute, mortality.
Another series has as its system Colinus virginianus. The settings on record: oral.
For a further series, the system named is Tagia sp. The settings on record: chronic/long-term; mortality.
The subject of another series is Oncorhynchus mykiss. The settings on record: acute; duration: 96 hours; mortality.
The next series relates to Danio rerio. The settings on record: subchronic; duration: 30 days; growth.

Take `CC(C)=CCC/C(C)=C/CC/C(C)=C/CO` [Farnesol]: the LC50 with Rattus norvegicus was above 2000 mg/kg-day; in the series with Oncorhynchus mykiss, above 0.134 µg/mL. Besides, the NOEC with Hypoaspis aculeifer was 1000 mg/kg; with Daphnia magna, 3 mg/L; in the series with Colinus virginianus (reproduction developmental, diet), at least 111 mg/kg-day; in the series with Tagia sp., at least 1000 mg/kg; in the series on Danio rerio, at least 0.138 mg/L. Further, the LD50 with Apis mellifera (dermal) was above 100 µg/piece; with Apis mellifera (oral, unspecified) it was above 100 µg/piece; in the series with Colinus virginianus (acute, mortality) it was above 2000 mg/kg-day.

The values are drawn from EPA's ToxValDB 9.5 (doi:10.2903/j.efsa.2020.5986).
